{"source": "paper PMC12689647", "about": "“Evaluation of bromadiolone combined with ciprofloxacin, vitamin D, aspirin, and cinnamon as an apoptosis-mediated rodenticide strategy” (Scientific Reports, 2025)", "origin": "cited, not measured here", "key": {"CYP1A": {"system": "CYP1A", "details": "co-administration, many animal species; cited from earlier work"}, "Albino rats": {"system": "Albino rats", "details": "repeated doses (1 g/kg); cited from earlier work"}, "G361 HMM cells": {"system": "G361 HMM cells", "details": "cited from earlier work"}}, "data": [{"smiles": "O=C(O)c1cn(C2CC2)c2cc(N3CCNCC3)c(F)cc2c1=O", "note": "[Ciprofloxacin]", "values": [{"measurement": "effect on CYP1A activity in hepatic microsomes", "setting": "CYP1A", "value": "inhibits CYP1A activity"}]}, {"smiles": "CC(=O)Oc1ccccc1C(=O)O", "note": "[acetylsalicylic acid, Acetylsalicylic acid]", "values": [{"measurement": "toxic effects of repeated doses", "setting": "Albino rats", "value": "varying degrees of gastroenteritis, hepatitis, nephritis, pulmonary edema"}]}, {"smiles": "O=c1ccc2cc(O)c(O)cc2o1", "note": "[esculetin]", "values": [{"measurement": "effect on apoptotic signaling molecules", "setting": "G361 HMM cells", "value": "activated apoptotic signaling molecules such as caspase-3 and PARP"}]}]}
